Test results as given in ChEMBL document CHEMBL2440068, “Synthesis and evaluation of N-alkyl-S-[3-(piperidin-1-yl)propyl]isothioureas: high affinity and human/rat species-selective histamine H(3) receptor antagonists” (Bioorg Med Chem Lett, 2013).
Active and inactive are the calls of the source. No cut-off for these calls is given here.

What was measured:
Histamine H3 receptor = Histamine H3 receptor (Homo sapiens, UniProt Q9Y5N1); experiment: Antagonist activity at human histamine H3 receptor expressed in CHO cells assessed as inhibition of forskolin/R-alpha-methylhistamine-induced cAMP accumulation after 1.5 hrs by TR-FRET immunoassay; assay type: functional, cell-based; conditions: for Kb: read-out: pA2 (converted)
Rattus norvegicus = experiment: Increase of histamine release in Wistar rat hypothalamus at 10 uM administered through dialysis membrane by HPLC-fluorometric based microdialysis relative to control; assay type: functional
[1] = molecular target: Histamine H4 receptor (Homo sapiens) (UniProt Q9H3N8); experiment: Agonist activity at human histamine H4 receptor expressed in CHO cells assessed increase of forskolin-induced cAMP accumulation at 1 uM after 1.5 hrs by TR-FRET immunoassay; assay type: functional, cell-based
[2] = molecular target: Histamine H4 receptor (Homo sapiens) (UniProt Q9H3N8); experiment: Antagonist activity at human histamine H4 receptor expressed in CHO cells assessed inhibition of forskolin/histamine-induced cAMP accumulation at 1 uM after 1.5 hrs by TR-FRET immunoassay; assay type: functional, cell-based

Chain of Histamine H3 receptor (Q9Y5N1 whole entry): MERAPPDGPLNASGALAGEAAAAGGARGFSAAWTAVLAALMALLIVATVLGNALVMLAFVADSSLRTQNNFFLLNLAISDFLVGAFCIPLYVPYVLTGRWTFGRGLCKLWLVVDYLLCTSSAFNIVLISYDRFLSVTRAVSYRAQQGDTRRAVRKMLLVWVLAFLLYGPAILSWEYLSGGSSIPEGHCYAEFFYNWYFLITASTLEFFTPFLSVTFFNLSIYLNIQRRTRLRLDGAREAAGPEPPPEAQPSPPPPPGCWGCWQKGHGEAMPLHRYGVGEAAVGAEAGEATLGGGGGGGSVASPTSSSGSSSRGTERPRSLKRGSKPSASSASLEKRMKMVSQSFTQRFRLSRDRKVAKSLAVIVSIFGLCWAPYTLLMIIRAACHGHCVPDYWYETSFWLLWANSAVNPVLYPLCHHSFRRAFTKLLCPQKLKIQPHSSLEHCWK
Chain of Histamine H4 receptor (Homo sapiens) (Q9H3N8 whole entry): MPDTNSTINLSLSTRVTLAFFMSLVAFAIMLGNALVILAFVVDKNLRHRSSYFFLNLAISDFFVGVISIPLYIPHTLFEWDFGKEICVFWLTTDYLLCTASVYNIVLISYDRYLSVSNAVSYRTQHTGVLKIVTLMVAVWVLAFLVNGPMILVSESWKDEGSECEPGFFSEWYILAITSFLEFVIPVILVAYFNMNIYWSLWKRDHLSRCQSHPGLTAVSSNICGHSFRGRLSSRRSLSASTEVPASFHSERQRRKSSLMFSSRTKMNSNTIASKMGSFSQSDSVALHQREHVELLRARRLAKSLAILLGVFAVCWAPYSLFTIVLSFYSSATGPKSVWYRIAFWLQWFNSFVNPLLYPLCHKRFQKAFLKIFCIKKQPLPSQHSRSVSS

SMILES | IC50 (Histamine H3 receptor) [nM] | Kb (Histamine H3 receptor) [nM] | Activity (Rattus norvegicus) [%] | Activity [1] | inhibition [2]
N=C(NCc1ccc(Cl)cc1)SCCCN1CCOCC1 | 1580 | – | – | – | –
N=C(NCCc1ccc(Cl)cc1)SCCCN1CCOCC1 | 316 | – | – | – | –
Cl.N=C(NCCCc1ccc(Cl)cc1)SCCCN1CCCCC1 | 6.31 | 2 | 102.2 | inactive | inactive
O=C(CCCN1CCCCC1)NCCCCc1ccc(C(F)(F)F)cc1 | 126 | – | – | – | –
N=C(NCc1ccc(Cl)cc1)SCCCN1CCNCC1 | 6310 | – | – | – | –
O=C(CCCN1CCCCC1)NCCCCc1ccc(Cl)cc1 | 126 | – | – | – | –
O=C(CCCCc1ccc(Cl)cc1)NCCCN1CCCCC1 | 316 | – | – | – | –
N=C(NCCCCN1CCCCC1)SCCCN1CCCCC1 | 6.31 | 2 | – | inactive | inactive
CN1CCN(CCCSC(=N)NCc2ccc(Cl)cc2)CC1 | 1260 | – | – | – | –
Cl.N=C(NCCCCCc1ccccc1)SCCCN1CCCCC1 | 31.6 | 10 | 90.5 | – | –
N=C(NCc1ccc(Cl)cc1)SCCCc1c[nH]cn1 [CLOBENPROPIT] | – | – | 145.6 | – | –
N#Cc1ccc(CCCCNC(=N)SCCCN2CCCCC2)cc1 | 2 | 2 | – | inactive | inactive
N=C(NCCCCc1ccc(C(F)(F)F)cc1)SCCCN1CCCCC1 | 15.8 | 12.6 | – | – | –
N=C(NCc1ccc(Cl)cc1)SCCCN1CCCC1 | 20 | – | – | – | –
Cl.N=C(NCCc1ccc(Cl)cc1)SCCCN1CCCCC1 | 7.94 | 39.8 | 145.8 | inactive | inactive
N=C(NCCc1ccc(Cl)cc1)SCCCN1CCCC1 | 31.6 | – | – | – | –
Cl.N=C(NCCCCc1ccc(Cl)cc1)SCCCN1CCCCC1 | 6.31 | 0.251 | 101.2 | inactive | inactive
Cl.N=C(NCc1ccc(Cl)cc1)SCCCN1CCCCC1 | 79.4 | 39.8 | 134.4 | – | –
